The structures appear in SMILES notation. pEC50: −log10 of the molar value.

For this assay, the target named is T1, Free fatty acid receptor 4 (Homo sapiens, UniProt Q5NUL3).
T1 sequence (Q5NUL3 whole entry): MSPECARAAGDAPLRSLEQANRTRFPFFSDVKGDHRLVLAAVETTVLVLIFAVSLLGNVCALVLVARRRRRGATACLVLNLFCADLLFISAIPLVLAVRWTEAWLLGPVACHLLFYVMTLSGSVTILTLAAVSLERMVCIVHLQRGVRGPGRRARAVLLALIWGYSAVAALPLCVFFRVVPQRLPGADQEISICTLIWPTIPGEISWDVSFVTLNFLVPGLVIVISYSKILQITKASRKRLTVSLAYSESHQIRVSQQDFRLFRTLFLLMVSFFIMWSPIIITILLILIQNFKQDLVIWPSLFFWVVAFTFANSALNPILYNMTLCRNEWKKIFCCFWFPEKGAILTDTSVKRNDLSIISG
Briefly: GPR120 pERK assay: For the pERK assay, 3×10^6 cells/mL cryopreserved human and mouse cells were thawed rapidly in a 37° C. water bath and added to a T-225 flask containing 50 mL growth medium. The flasks were placed in a tissue culture incubator overnight (37° C., 5% CO2). The next day, cells were harvested with trypsin (Gibco Cat. #25300-054), resuspended in serum-containing growth medium and counted using a Cellometer and volume adjusted to a concentration of 0.5×10^6 cells/mL. Cells were plated into 384-well clear bottom tissue culture plates (BD Cat. #353962) at 50 μL/well, for a density of 25,000 cells/well using a MULTIDROP® and incubated for 16-18 hours (overnight) at 37° C. with 5% CO2. The next day, cells were washed once with 50 μL of PBS without Ca++/Mg++ (Gibco Cat. #14190-036) and serum starved in 25 μL of F-12 media without any serum or antibiotics for 2 hours at 37° C.Test compounds were 3-fold, 11-point serially diluted in DMSO in a REMP assay plate (Matrix Cat. #4307) by Tecan and 5 μL was transferred into an ECHO source plate (Labcyte Cat. #LC-0200). Cells were then stimulated with 40 nL of compound dilutions using ECHO liquid handler for 7 min at 37° C. […].

For `O=C(O)C1CC1COc1ccc(-c2ccccc2-c2ccccc2)cc1` (configuration not stated), the negative logarithm of the EC50 (pEC50) (commonly the EC50 on a negative log10 scale, so that one unit is a factor of ten) is 5.16.

As to `O=C(O)C1CC1COc1ccc(-c2cccc(-c3ccccc3)c2)cc1` (configuration not stated), the pEC50 is 5.77.

The record behind these values is ChEMBL document CHEMBL5726932, “Cyclopropanecarboxylic acid GPR120 modulators” (2018).
